In patent publication US11098040B2, “Compounds and methods of use” (Ferro Therapeutics, Inc., priority 2018, dated 2021):

What was measured:
[1] = mouse, ip, 15 mg/kg
Experimental: (§4) Test compounds were dissolved either in 20% (w/w) sulfobutylether-β-cyclodextrin (SBECD) pH 3-7 aqueous solution, or 5% DMSO/(30-50%) PEG400/(65-45%) water. Test compound dosing solutions were administered intraperitoneally to Balb/c nude male mice. Blood samples were collected at various time points with EDTA-K2 as anti-coagulant on ice, and centrifuged to obtain plasma samples. The plasma samples were stored at −20° C. until analysis.
(§5) Into 10 μL of test compound plasma samples were added 2 μL DMSO then 200 μL of 5 ng/mL internal standard (VTSD) (Terfenadine) in MeOH/acetonitrile. The mixture was vortexed for 1 minute and centrifuged at 4000 rpm for 15 minutes. Calibration standards were prepared by spiking known amount of test compounds into blank plasma samples. The supernatant solution was diluted 5 times with Acetonitrile/H2O (with 0.1% formic acid, 1:1, v/v), and this is the solution for LC-MS/MS analysis. The limit of quantification (LOQ) was 1 ng/mL.
(§6) Typical HPLC mobile phases were mobile phase of 5 mM NH4OAc (with 0.05% formic acid); and mobile phase B of acetonitrile (with 0.1% formic acid). The HPLC column was Kinetex C18 (30 mm×3.00 mm). Mass spectrometer was tuned for each compound in the Multiple Reaction Monitoring (MRM) scanning mode and in the electrospray ionization mode. The lower limit of quantification was 1-10 ng.
(§7) In this study, K601 (RSL3) was formulated in 5% DMSO/30% PEG 400/65% water at 1.5 mg/mL. The volume of injection via intraperitoneal route was 10 mL/kg for a dose of 15 mg/kg. […] The limit of quantification (LOQ) was 1 ng/mL.
(§8) In this study, the compound was formulated in 20% (w/w) sulfobutylether-β-cyclodextrin (SBECD), pH 5 aqueous solution at 1.5 mg/mL. The volume of injection via intraperitoneal route was 10 mL/kg for a dose of 15 mg/kg. The concentration of test compounds in plasma were analyzed by LC-MS with the method described above. The limit of quantification was 1 ng/mL.
(§9) It was formulated in 5% DMSO/50% PEG400/45% Water pH adjusted to 4 with HCl as an aqueous solution at 1.0 mg/mL. The volume of injection via intraperitoneal route was 15 mL/kg for a dose of 15 mg/kg. The concentration of test compounds in plasma were analyzed by LC-MS with the method described above. The limit of quantification was 1 ng/mL. […] The limit of quantification was 1 ng/mL.
(§10) Compounds 24 and 28 were formulated in 20% (w/w) sulfobutylether-β-cyclodextrin (SBECD) with pH 3 and pH 4, respectively, as an aqueous solution at 1.0 mg/mL. Compound 67 was in 5% DMSO/50% PEG 400/45% water pH 4 (adjusted with 12 N HCl) aqueous solution at 1.0 mg/mL. The injection volume via intraperitoneal route was 10 mL/kg for a dose of 15 mg/kg. The concentration of test compounds in plasma were analyzed by LC-MS with the method described above. The limit of quantification was 1 ng/mL.

H1299 = experiment: Cell viability assay (CellTiter Glo), lung cancer cell line H1299; format: cell-based; settings: Homo sapiens, NCI-H1299, 96 hours
Experimental: (§1) Cell viability assay was performed to assess the potency of the compounds in human cancer cell lines KP4 (pancreatic ductal adenocarcinoma), MiaPaCa-2 (pancreatic carcinoma), AsPC-1 (pancreatic adenocarcinoma, ascites), 143B (osteosarcoma), and SJSA-1 (osteosarcoma). Selected compounds were also assayed in a human breast epithelial cell line MCF-10A, a nontumorigenic cell line as a control to assess differential activity. Cells at a density of 500-5,000 cells/well were seeded in 96-well plates and incubated at 37° C. overnight. A series of 9 different concentrations of compound stocks (500×) were created by 3-fold serial dilution in DMSO. These compounds were further diluted in culture media and then added to cells so that the final DMSO concentration was equal to 0.25% or less. After 96 hours of incubation, 50 μL of CellTiter Glo reagent (Promega) was added to each well and luminescence was measured after 10 minutes using EnVision (PerkinElmer). Compounds titrated from top concentration of up to 30 μM. The select compounds were tested initially from 30 μM as the top concentration in duplicates (range of 4.6 nM-30 μM). […] Luminescence from cells treated with DMSO alone was set as Max and % of inhibition was calculated as follows: Inhibition %=(Max-Sample value)/Max*100. Data was analyzed using XL-fit software (ID Business Solutions Ltd.). IC50, relative IC50, or % of top inhibition was calculated.
(§2) A group of selected analogs were further profiled in cell viability assays described above in multiple additional cancer cell lines, including lung cancer, melanoma, hepatocarcinoma, pancreatic cancer, leukemia, lymphoma, ovarian cancer, breast cancer, colon cancer, and sarcoma cell lines. Initial cell seeding numbers were adjusted for each cell line. Typically, 500-5000 cells/well for adherent cells and 5000-10000/well for suspension cells were seeded in 96-well plates.

H2228 = experiment: Cell viability assay (CellTiter Glo), lung cancer cell line H2228; format: cell-based; settings: Homo sapiens, NCI-H2228; lung cancer cell line, 96 hours, CellTiter Glo; read-out: IC50 H2228
Experimental: as §1, §2

MDA-MB-435S = experiment: Cell viability assay (CellTiter Glo), melanoma cell line MDA-MB-435S; format: cell-based; settings: Homo sapiens, 96 hours
Experimental: as §1, §2

Huh7 = experiment: Cell viability assay (CellTiter Glo), hepatocellular carcinoma Huh7; format: cell-based; settings: Homo sapiens, Huh-7, 96 hours
Experimental: as §1, §2

PANC1 = experiment: Cell viability assay (CellTiter Glo), pancreatic cell line PANC1; format: cell-based; settings: Homo sapiens, PANC-1, 96 hours
Experimental: as §1, §2
The results of the assay in the pancreatic cell lines are given in Table 15a for PANC1, Table 15b for MiaPaCa-2, and Table 15c for AsPC-1.

MV-4-1 = experiment: Cell viability assay (CellTiter Glo), leukemia cell line MV-4-1; format: cell-based; settings: 96 hours
Experimental: as §1, §2
The results of the assay in the leukemia cell lines are given in Table 16a for MV-4-1 and Table 16b for HL-60 and Kasumi-1.

REC-1 = experiment: Cell viability assay (CellTiter Glo), lymphoma cell line REC-1; format: cell-based; settings: Homo sapiens, Rec1, 96 hours
Experimental: as §1, §2

Raji = experiment: Cell viability assay (CellTiter Glo), lymphoma cell line Raji; format: cell-based; settings: Homo sapiens, 96 hours
Experimental: as §1, §2

SK-OV-3 = experiment: Cell viability assay (CellTiter Glo), ovarian cancer cell line SK-OV-3; format: cell-based; settings: Homo sapiens, 96 hours
Experimental: as §1, §2

HCC1954 = experiment: Cell viability assay (CellTiter Glo), breast cancer cell line HCC1954; format: cell-based; settings: Homo sapiens, 96 hours
Experimental: as §1, §2

HT29 = experiment: Cell viability assay (CellTiter Glo), colon cancer cell line HT29; format: cell-based; settings: Homo sapiens, HT-29, 96 hours
Experimental: as §1, §2

HT-1080 luc2 = experiment: Cell viability assay (CellTiter Glo), fibrosarcoma HT-1080 luc2; format: cell-based; settings: Homo sapiens, fibrosarcoma expressing a luciferase gene, 96 hours, CellTiter Glo, read-out: IC50 HT-1080 luc2
Experimental: as §1, §2
(§3) The results of the assay in sarcoma cell lines are given in Table 21a for HT-1080 luc2 (fibrosarcoma expressing a luciferase gene), Table 21b for 143B (osteosarcoma), and Table 21c for SJSA-1 (osteosarcoma).

MCF-10A = experiment: Cell viability assay (CellTiter Glo), non-tumorigenic breast epithelial cell line MCF-10A; format: cell-based; settings: Homo sapiens, 96 hours
Summary of the method: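 Non-tumorigenic breast epithelial MCF-10A line, exposed for 96 hours to compound (top concentration up to 30 μM, 3-fold steps, duplicates, final DMSO 0.25% or less). ATP luminescence (CellTiter Glo) normalised to DMSO controls yields IC50, relative IC50 or % top inhibition; paclitaxel served as cytotoxic control.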

MiaPaCa-2 = experiment: Cell viability assay (CellTiter Glo), pancreatic carcinoma MiaPaCa-2; format: cell-based; settings: Homo sapiens, MIA PaCa-2; pancreatic carcinoma, 96 hours, CellTiter Glo; read-out: IC50 MiaPaCa-2
Summary of the method: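 MiaPaCa-2 and AsPC-1 cells were seeded overnight at 37 °C and exposed for 96 h to 9-point, 3-fold dilutions from up to 30 μM (final DMSO ≤0.25%). CellTiter Glo luminescence was read, and inhibition was calculated relative to DMSO-only cells. IC50, relative IC50 or % top inhibition was derived.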

[2] = Pharmacokinetic (PK) studies in Balb/C nude mice via intraperitoneal injection; settings: male, Balb/c nude, mouse, plasma, ip, 15 mg/kg, Calculated Concentration, IP 15 mg/kg, Balb/C nude mice
Experimental: as §4, §5, §6, §7, §8, §9, §10

143B = experiment: Cell viability assay (CellTiter Glo), osteosarcoma 143B; format: cell-based; settings: Homo sapiens, 96 h, osteosarcoma, 96 hours, CellTiter Glo, read-out: IC50 143B
Experimental: as §1, §3

SJSA-1 = experiment: Cell viability assay (CellTiter Glo), osteosarcoma SJSA-1; format: cell-based; settings: Homo sapiens, 96 hours
Experimental: as §1, §3

IC50 (H1299) [nM]	IC50 (H2228) [nM]	IC50 (MDA-MB-435S) [nM]	IC50 (Huh7) [nM]	IC50 (PANC1) [nM]	IC50 (MV-4-1) [nM]	IC50 (REC-1) [nM]	IC50 (Raji) [nM]	IC50 (SK-OV-3) [nM]	IC50 (HCC1954) [nM]	IC50 (HT29) [nM]	IC50 (HT-1080 luc2) [nM]	SMILES	IC50 (MCF-10A) [nM]	further results
21	34	38	84	161	230	186	74	113	137	448	28	C[C@H]1Cc2c([nH]c3ccccc23)[C@H](c2ccc(N3CCOCC3)cc2)N1C(=O)CCl [Example 103]	1370	–
32	57	17	43	69	168	106	38	63	108	174	19	C[C@H]1Cc2c([nH]c3ccccc23)[C@H](c2ccc(C3CCCC3)cc2)N1C(=O)CCl [Example 109]	1140	–
79	145	48	157	214	532	222	81	146	200	494	69	COC(=O)c1ccc([C@H]2c3[nH]c4ccc(OC)cc4c3C[C@H](C)N2C(=O)CCl)cc1 [Example 113]	–	–
30	51	14	35	72	164	96	33	53	101	112	17	C[C@H]1Cc2c([nH]c3ccccc23)[C@H](c2ccc(C3CCCCC3)cc2)N1C(=O)CCl [Example 110]	–	–
3	9	4	11	30	23	31	10	13	38	48	4	C[C@H]1Cc2c([nH]c3ccccc23)[C@H](c2ccc(C(=O)N[C@]34CC5C[C@H](C[C@H](C5)C3)C4)cc2)N1C(=O)CCl [Example 102]	220	–
38	66	30	81	81	270	140	46	102	101	198	24	C[C@H]1Cc2c([nH]c3ccccc23)[C@H](c2ccc(C3CCOCC3)cc2)N1C(=O)CCl [Example 112]	–	–

Further lines, the compound ahead of its results:

SMILES	IC50 (H1299) [nM]	IC50 (H2228) [nM]	IC50 (MDA-MB-435S) [nM]	IC50 (Huh7) [nM]	IC50 (PANC1) [nM]	IC50 (MV-4-1) [nM]	IC50 (REC-1) [nM]	IC50 (Raji) [nM]	IC50 (SK-OV-3) [nM]	IC50 (HCC1954) [nM]	IC50 (HT29) [nM]	IC50 (HT-1080 luc2) [nM]	IC50 (MCF-10A) [nM]	further results
O=C(O)c1ccc([C@H]2c3[nH]c4ccccc4c3C[C@H](C(=O)O)N2C(=O)CCl)cc1 [Example 5]	–	–	–	–	–	–	–	–	–	–	–	–	–	detection in vivo of hydrolyzed products of K601 (RSL3) [1]: detected
C[C@H]1Cc2c([nH]c3ccccc23)[C@H](c2ccc([Si](C)(C)C)cc2)N1C(=O)CCl [Example 106]	7	55	17	28	55	170	156	31	87	120	189	11	–	–
C[C@H]1Cc2c([nH]c3ccccc23)[C@H](c2ccc(S(=O)(=O)N[C@]34CC5C[C@H](C[C@H](C5)C3)C4)cc2)N1C(=O)CCl [Example 101]	38	163	36	72	169	174	191	75	114	613	403	39	1070	–
COC(=O)[C@H]1Cc2c([nH]c3ccccc23)[C@H](c2ccc(C(=O)O)cc2)N1C(=O)CCl [Example 4]	–	–	–	–	–	–	–	–	–	–	–	–	–	detection in vivo of hydrolyzed products of K601 (RSL3) [1]: detected
COC(=O)c1ccc([C@@H]2c3[nH]c4ccc(Cl)cc4c3C[C@H](C(=O)OC)N2C(=O)CCl)cc1 [Example 94]	5	19	9	26	47	83	29	9	18	68	110	8	460	–
CN(C)C(=O)[C@H]1Cc2c([nH]c3ccccc23)[C@H](c2ccc([Si](C)(C)C)cc2)N1C(=O)CCl [Example 67]	–	–	–	–	–	–	–	–	–	–	–	–	–	IC50 (MiaPaCa-2): 805 nM; concentration at 0.5 h ([2]; individual mice): 90.6 ng/mL; concentration at 1 h ([2]; individual mice): 38.7 ng/mL; concentration at 4 h ([2]; individual mice): 16.6 ng/mL; concentration at 0.5 h ([2]; Mean, mean of 3 mice): 112 ng/mL; concentration at 1 h ([2]; Mean, mean of 3 mice): 51.7 ng/mL; concentration at 2 h ([2]; Mean, 2 h, mean of 3 mice): 20.2 ng/mL; concentration at 4 h ([2]; Mean, mean of 3 mice): 14.4 ng/mL
CC[C@H]1Cc2c([nH]c3ccccc23)[C@H](c2ccc(C(=O)OC)cc2)N1C(=O)CCl [Example 98]	6	17	7	27	43	65	61	20	30	63	94	9	920	–
COC(=O)c1ccc([C@H]2c3[nH]c4ccccc4c3C[C@H](C(=O)O)N2C(=O)CCl)cc1 [Example 3]	–	–	–	–	–	–	–	–	–	–	–	–	–	detection in vivo of hydrolyzed products of K601 (RSL3) [1]: detected
COC(=O)[C@H]1Cc2c([nH]c3ccccc23)[C@H](c2ccc(C(=O)NC(C(=O)O)C(C)(C)C)cc2)N1C(=O)CCl (stereo partly shown) [Example 10]	–	–	–	–	–	–	–	–	–	–	–	–	> 30000	IC50 (MiaPaCa-2): 1590 nM; IC50 (143B): 4410 nM; IC50 (SJSA-1): 15300 nM
COC(=O)[C@H]1Cc2c([nH]c3ccccc23)[C@H](c2ccc(S(=O)(=O)N(C)C)cc2)N1C(=O)CCl [Example 23]	–	–	–	–	–	–	–	–	–	–	–	–	2390	IC50 (MiaPaCa-2): 36 nM; IC50 (143B): 34 nM; IC50 (SJSA-1): 90 nM
